Measured values taken from ChEMBL document CHEMBL1201862, “PubChem BioAssay data set” (2004).
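In this assay, cells in 96-well plates receive the compound at five concentrations for 48 hours. Endpoints are linearly interpolated between the surrounding concentrations. Here, GI50 denotes the concentration required for 50% inhibition of growth.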 Active and inactive are the calls of the source. No stated cut-off is given here; in the data, active = GI50 up to about 1.1 µM and inactive = higher.

Columns and labels:
Test in all cases: DTP human tumour cell line panel, 48 h
HCC 2998 = system: HCC 2998
HOP-92 = system: HOP-92
HT-29 = system: HT-29
NCI-H522 = system: NCI-H522
OVCAR-5 = system: OVCAR-5
RXF 393 = system: RXF 393
SF-268 = system: SF-268
SF-295 = system: SF-295
SK-MEL-5 = system: SK-MEL-5
SNB-19 = system: SNB-19
SNB-75 = system: SNB-75
UO-31 = system: UO-31
SK-MEL-2 = system: SK-MEL-2
SR = system: SR
HL-60 = system: HL-60

Measured: GI50

Cc1ccc(NC(=O)C(=O)CC(=O)c2ccccc2)cc1C
inactive: HCC 2998 > 100 µM | HOP-92 > 100 µM | HT-29 > 100 µM | NCI-H522 98.9 µM | OVCAR-5 > 100 µM | RXF 393 > 100 µM | SF-268 > 100 µM | SF-295 > 100 µM | SK-MEL-5 > 100 µM | SNB-19 > 100 µM | SNB-75 > 100 µM | UO-31 > 100 µM

CN1CCCCC(C(O)(c2ccccc2)c2ccccc2)C1=O (stereo unspecified)
inactive: HCC 2998 > 100 µM | HOP-92 > 100 µM | HT-29 > 100 µM | NCI-H522 > 100 µM | OVCAR-5 > 100 µM | RXF 393 69 µM | SF-268 > 100 µM | SF-295 > 100 µM | SK-MEL-2 > 100 µM | SK-MEL-5 > 100 µM | SNB-19 > 100 µM | SNB-75 > 100 µM | SR > 100 µM | UO-31 > 100 µM

CC(C)(C)C(=C[S+]([O-])/N=C/c1ccccc1)C(C)(C)C (stereo unspecified)
inactive: HOP-92 19.7 µM | HT-29 38.4 µM | NCI-H522 23 µM | OVCAR-5 48.6 µM | RXF 393 26.7 µM | SF-268 49.4 µM | SK-MEL-2 15.9 µM | SK-MEL-5 24.3 µM | SNB-19 44.7 µM | SNB-75 16.4 µM | SR 24.7 µM | UO-31 27.2 µM

O=C(CC(=O)N1N=C(n2ccc3ccccc32)CC1c1ccccc1)Nc1ccccc1Cl (stereo unspecified)
inactive: HCC 2998 > 100 µM | HL-60 > 100 µM | HOP-92 32.3 µM | HT-29 > 100 µM | NCI-H522 > 100 µM | RXF 393 > 100 µM | SF-268 > 100 µM | SF-295 > 100 µM | SK-MEL-2 > 100 µM | SNB-19 > 100 µM | SNB-75 > 100 µM | UO-31 > 100 µM

CC(C)OP(=O)(OC(C)C)/C(=N/Nc1ccc([N+](=O)[O-])cc1)Nc1ccccc1
inactive: HCC 2998 49.5 µM | HL-60 18.2 µM | HOP-92 17.5 µM | NCI-H522 17.9 µM | OVCAR-5 > 100 µM | SF-268 25 µM | SK-MEL-2 40.1 µM | SK-MEL-5 12.2 µM | SNB-19 36.7 µM | SNB-75 36.6 µM | SR 16.6 µM | UO-31 77.3 µM

c1cc2ccc1C1NCCCN1CCN1CCCNC1c1ccc(cc1)C1NCCCN1CCN1CCCNC21 (stereo unspecified)
inactive: HL-60 20.1 µM | HOP-92 > 100 µM | HT-29 > 100 µM | NCI-H522 23.1 µM | OVCAR-5 > 100 µM | SF-268 > 100 µM | SF-295 > 100 µM | SK-MEL-2 > 100 µM | SK-MEL-5 > 100 µM | SNB-19 > 100 µM | SNB-75 > 100 µM | UO-31 > 100 µM

CC(C)c1cc(C(C)C)c(S(=O)(=O)N=[N+]=[N-])c(C(C)C)c1
inactive: HCC 2998 > 100 µM | HL-60 22.9 µM | HOP-92 > 100 µM | HT-29 46.6 µM | NCI-H522 > 100 µM | OVCAR-5 > 100 µM | RXF 393 68.4 µM | SF-268 67.3 µM | SK-MEL-5 > 100 µM | SNB-19 > 100 µM | SNB-75 23 µM | SR 31.6 µM | UO-31 > 100 µM

COc1cc(C(=O)C(CO)Oc2ccccc2OC)ccc1O (stereo unspecified)
inactive: HCC 2998 > 100 µM | HL-60 > 100 µM | HOP-92 88.7 µM | HT-29 > 100 µM | NCI-H522 > 100 µM | OVCAR-5 > 100 µM | SF-268 > 100 µM | SF-295 > 100 µM | SK-MEL-5 > 100 µM | SNB-19 > 100 µM | SNB-75 67 µM | SR 34.9 µM | UO-31 > 100 µM

Cc1ccccc1-n1c(N)c(-c2nc3ccccc3[nH]2)sc1=S
inactive: HCC 2998 18.3 µM | HL-60 26.1 µM | HT-29 19.6 µM | NCI-H522 21.3 µM | OVCAR-5 37 µM | RXF 393 30.1 µM | SF-268 29.6 µM | SF-295 22.6 µM | SK-MEL-2 23.9 µM | SK-MEL-5 20.8 µM | SNB-19 24.9 µM | SNB-75 29.4 µM | UO-31 23.8 µM

CC1=CC(=O)N2C(OC[C@@H]2c2ccccc2)O1 (stereo partly specified)
inactive: HL-60 > 100 µM | HOP-92 > 100 µM | HT-29 > 100 µM | NCI-H522 > 100 µM | RXF 393 > 100 µM | SF-268 > 100 µM | SF-295 > 100 µM | SK-MEL-2 > 100 µM | SK-MEL-5 > 100 µM | SNB-19 > 100 µM | SNB-75 > 100 µM | SR > 100 µM | UO-31 > 100 µM

CC1C2C=C(O)C(=O)C(C2=O)C1c1ccccc1 (stereo unspecified)
inactive: HCC 2998 > 100 µM | HOP-92 > 100 µM | HT-29 > 100 µM | NCI-H522 > 100 µM | OVCAR-5 > 100 µM | RXF 393 > 100 µM | SF-268 > 100 µM | SF-295 > 100 µM | SK-MEL-2 > 100 µM | SK-MEL-5 > 100 µM | SNB-19 > 100 µM | SNB-75 82.6 µM | SR > 100 µM | UO-31 > 100 µM

C#Cc1c(C)c(/C=C/C(C)=C/C(=O)OC)n(C)c1C
inactive: HCC 2998 59 µM | HL-60 12.1 µM | HOP-92 25 µM | HT-29 58.1 µM | NCI-H522 71.8 µM | OVCAR-5 > 100 µM | SF-268 79.3 µM | SF-295 > 100 µM | SNB-19 > 100 µM | UO-31 > 100 µM

CCOC(=O)c1c(-c2[nH]c(C(=O)OCc3ccccc3)c(C)c2C(=O)OCC)[nH]c(C(=O)OCc2ccccc2)c1C
inactive: HCC 2998 > 100 µM | HOP-92 55.2 µM | HT-29 > 100 µM | NCI-H522 > 100 µM | OVCAR-5 > 100 µM | RXF 393 19.9 µM | SF-268 > 100 µM | SF-295 > 100 µM | SK-MEL-2 > 100 µM | SK-MEL-5 > 100 µM | SNB-75 29 µM | SR > 100 µM | UO-31 > 100 µM

O=C(NCCCCNc1cccccc1=O)OCc1ccccc1
inactive: HCC 2998 > 100 µM | HL-60 > 100 µM | HT-29 > 100 µM | NCI-H522 > 100 µM | OVCAR-5 > 100 µM | SF-268 > 100 µM | SF-295 > 100 µM | SK-MEL-2 > 100 µM | SK-MEL-5 48.1 µM | SNB-19 > 100 µM | SNB-75 > 100 µM | UO-31 58.5 µM

COC(=O)C1CC2c3c(c4ccccc4n3C)CC(C1=O)N2C (stereo unspecified)
inactive: HCC 2998 34.8 µM | HL-60 27.3 µM | HOP-92 74.3 µM | HT-29 42.1 µM | NCI-H522 17.3 µM | OVCAR-5 > 100 µM | SF-268 68.9 µM | SF-295 > 100 µM | SK-MEL-2 > 100 µM | SK-MEL-5 25.1 µM | SNB-19 75.9 µM | SNB-75 31.5 µM | SR 27.5 µM | UO-31 21.4 µM

N#CCC(=O)N1CCCOCCC1
inactive: HCC 2998 > 100 µM | HL-60 58.7 µM | HT-29 34.1 µM | OVCAR-5 > 100 µM | RXF 393 > 100 µM | SF-268 > 100 µM | SF-295 > 100 µM | SK-MEL-2 > 100 µM | SK-MEL-5 > 100 µM | SNB-19 > 100 µM | UO-31 > 100 µM

CCC1C(C)c2c([nH]c3ccccc23)C2C(=O)N(c3ccccc3)C(=O)C21 (stereo unspecified)
inactive: HCC 2998 15.5 µM | HL-60 11.1 µM | HT-29 12.5 µM | RXF 393 12.7 µM | SF-268 20 µM | SF-295 15.1 µM | SK-MEL-5 15.4 µM | SNB-75 11.4 µM | SR 8.41 µM

COc1ccc(OC)c(/C(C)=N/NC(N)=S)c1
inactive: HCC 2998 > 100 µM | HL-60 > 100 µM | HOP-92 > 100 µM | HT-29 > 100 µM | OVCAR-5 > 100 µM | RXF 393 > 100 µM | SF-268 > 100 µM | SF-295 > 100 µM | SK-MEL-2 > 100 µM | SK-MEL-5 > 100 µM | SNB-75 > 100 µM | SR > 100 µM | UO-31 > 100 µM

CC(C)N1CN(C(C(=O)N[C@@H]2C(=O)N3C2SC(C)(C)C3C(=O)O)c2ccc(O)cc2)CSC1=S (stereo partly specified)
inactive: HL-60 > 100 µM | HOP-92 > 100 µM | HT-29 > 100 µM | NCI-H522 41 µM | OVCAR-5 > 100 µM | SF-268 > 100 µM | SF-295 > 100 µM | SK-MEL-2 > 100 µM | SK-MEL-5 > 100 µM | SNB-19 > 100 µM | SNB-75 > 100 µM | UO-31 > 100 µM

CC(=O)C1(O)CC2(c3ccccc3)C(=O)C1(c1ccccc1)C(c1ccccc1)=C2c1ccccc1 (stereo unspecified)
inactive: HL-60 29.4 µM | HOP-92 80.9 µM | HT-29 > 100 µM | NCI-H522 66.8 µM | OVCAR-5 49.1 µM | RXF 393 > 100 µM | SF-268 > 100 µM | SF-295 33.4 µM | SK-MEL-5 44 µM | SNB-19 > 100 µM | SNB-75 38.7 µM | SR 85.1 µM | UO-31 58.5 µM

CN(C)c1ccccc1CC(c1c[nH]c2ccccc12)c1c[nH]c2ccccc12
inactive: HCC 2998 9.46 µM | HL-60 7.93 µM | HT-29 5.38 µM | NCI-H522 12.9 µM | OVCAR-5 16.9 µM | RXF 393 7.91 µM | SF-268 14.8 µM | SF-295 11.9 µM | SK-MEL-2 14.8 µM | SK-MEL-5 15.3 µM | SNB-19 14.4 µM | SNB-75 10.3 µM | SR 5.46 µM | UO-31 10.9 µM
